From patent US9376454B2, “Beta-lactamase inhibitors” (priority 2013, dated 2016)

Legend:
Assay type in all cases: biochemical
SHV-5 β-lactamase = target: T1, SHV-5 β-lactamase (Klebsiella pneumoniae, UniProt P0A3M1); assay: β-Lactamase inhibition enzyme assay, SHV-5
T1 construct: made in house; host or cells: E. coli BL21(DE3)
Experimental: (§1) For SHV-5, Kpc-2, p99AmpC and OXA-1 β-lactamases, E. coli BL21(DE3) bacterial cells carrying expression plasmids (expressed as native untagged proteins) for the individual β-lactamases were grown in 1 L of Superbroth (Teknova Inc. Hollister, Calif.) supplemented with 100 μg/ml kanamycin selection and 1×5052 (0.5% glycerol, 0.05% glucose and 0.2% α-lactose) at 35° C. for 18-20 hours. Cells were harvested by centrifugation (4,000×g, 4° C., 20 min), resuspended in 50 ml of 10 mM HEPES pH 7.5 ( 1/20 of the initial volume). The cells were lysed by sonication (5 pulses of 45 seconds) at 45 W on ice. The lysates were clarified by centrifugation at 10,000×g for 40 minutes at 4° C. Samples were diluted 5-fold in 50 mM sodium acetate pH 5.0, stored overnight at 4° C., after which they were centrifuged at 10,000×g for 30 minutes to clarify, and filtered through 0.45 μm filters. The samples were loaded onto a 5 ml Capto S sepharose cation exchange column (GE Healthcare) pre-equilibrated with 50 mM sodium acetate pH 5.0. The column was washed with 5 column volumes of 50 mM sodium acetate pH 5.0 to wash out unbound protein and a linear gradient of NaCl (0 to 500 mM) was used to elute the protein (over 16 CV) from the column. Fractions were assayed for β-lactamase activity using Centa (Calbiochem, Gibbstown, N.J.) or Nitrocefin (EMD Millipore chemicals, Darmstadt, Germany) as a reporter β-lactamase substrate for activity in the isolated fractions. Active fractions were pooled, concentrated and further purified by gel filtration chromatography on a Superdex 75 prep grade gel filtration column (GE Healthcare, Piscataway, N.J.) pre-equilibrated in 50 mM Hepes pH 7.5, 150 mM NaCl. Active fractions were pooled concentrated, quantitated by BCA protein determination (Thermo Scientific, Rockford, Ill.), dialyzed into PBS and frozen at −80° C. in 20% glycerol until use.
(§2) An equal volume of diluted enzyme stock was added, and the plates were incubated at 37° C. for 15 min. Nitrocefin was used as substrate for p99 AmpC, VIM-2 and OXA-1 and dispensed into each well at a final concentration of 100 μM. Absorbance at 486 nm was immediately monitored for 10 min using a Biotek Powerwave XS2 microplate spectrophotometer using the GEN5 softweare package (Biotek Instruments, Winooski Vt.). In an analogous fashion, imipenem was used as substrate for Kpc-2 and Cefotaxime was used for SHV-5, while changes in absorbance upon hydrolysis of the β-lactam ring were monitored at 300 nm and 260 nm respectively in UV-transparent 96-well microtiter assay plates. Maximum rates of hydrolysis were compared to those in control wells (without inhibitors), and percentages of enzyme inhibition were calculated for each concentration of inhibitor. The concentration of inhibitor needed to reduce the initial rate of hydrolysis of substrate by 50% (IC50) was calculated as the residual activity of β-lactamase at 486 nm using GraFit version 7 kinetics software package (Erithacus Software, Surrey, UK).

KPC-2 β-lactamase = target: T2, KPC-2 β-lactamase (Klebsiella pneumoniae, UniProt Q9F663); assay: β-Lactamase inhibition enzyme assay, KPC-2; conditions: imipenem as substrate, 300 nm; 15 min at 37° C. with enzyme, PBS pH 7.4; read-out: Class A KPC-2 IC50
T2 construct: made in house; host or cells: E. coli BL21(DE3)
T2 sequence (Q9F663 25-293, looked up): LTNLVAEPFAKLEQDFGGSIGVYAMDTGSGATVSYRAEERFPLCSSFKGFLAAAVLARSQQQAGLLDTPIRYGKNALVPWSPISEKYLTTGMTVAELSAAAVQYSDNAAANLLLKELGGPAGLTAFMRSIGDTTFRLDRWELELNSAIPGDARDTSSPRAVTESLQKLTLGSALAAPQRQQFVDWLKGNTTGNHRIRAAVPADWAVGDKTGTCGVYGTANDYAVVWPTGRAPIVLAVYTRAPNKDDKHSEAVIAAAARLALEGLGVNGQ
Experimental: as §1, §2

[1] = target: T3, VIM-2 metallo β-lactamase (Pseudomonas aeruginosa, UniProt Q9K2N0); assay: β-Lactamase inhibition enzyme assay, VIM-2; conditions: Nitrocefin 100 μM as substrate, 486 nm; 15 min at 37° C. with enzyme, PBS pH 7.4; read-out: Class B VIM-2 IC50
T3 construct: made in house; host or cells: E. coli BL21(DE3)
Experimental: as §1
For Vim-2 metallo β-lactamase, the procedure was identical with the following exceptions, first the protein was not pH adjusted to pH 5 with 50 mM sodium acetate, second, the chromatography step was changed to a 5 ml Q sepharose anion exchange column pre-equilibrated with 50 mM Hepes pH 7.5, and elution of the protein was achieved by a linear gradient of NaCl (0-600 mM). Finally, the VIM-2 purification required a second run (3rd step) on the Q sepharose anion exchange column to achieve acceptable purity (>90%).
as §2

OXA-1 β-lactamase = target: T4, OXA-1 β-lactamase (Escherichia coli, UniProt P13661); assay: β-Lactamase inhibition enzyme assay, OXA-1; conditions: Nitrocefin 100 μM as substrate, 486 nm; 15 min at 37° C. with enzyme, PBS pH 7.4; read-out: Class D OXA-1 IC50
T4 construct: made in house; host or cells: E. coli BL21(DE3)
T4 sequence (P13661 26-276): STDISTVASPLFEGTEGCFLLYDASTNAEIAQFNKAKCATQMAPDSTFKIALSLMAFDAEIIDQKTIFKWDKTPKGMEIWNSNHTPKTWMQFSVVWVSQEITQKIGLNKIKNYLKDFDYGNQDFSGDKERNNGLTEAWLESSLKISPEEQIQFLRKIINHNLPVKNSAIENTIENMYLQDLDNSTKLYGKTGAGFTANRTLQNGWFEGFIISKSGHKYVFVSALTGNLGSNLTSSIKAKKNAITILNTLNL
Experimental: as §1, §2

p99 AmpC β-lactamase = target: T5, p99 AmpC β-lactamase (Enterobacter cloacae, UniProt P05364); assay: β-Lactamase inhibition enzyme assay, p99 AmpC
T5 construct: made in house; host or cells: E. coli BL21(DE3)
T5 sequence (P05364 21-381): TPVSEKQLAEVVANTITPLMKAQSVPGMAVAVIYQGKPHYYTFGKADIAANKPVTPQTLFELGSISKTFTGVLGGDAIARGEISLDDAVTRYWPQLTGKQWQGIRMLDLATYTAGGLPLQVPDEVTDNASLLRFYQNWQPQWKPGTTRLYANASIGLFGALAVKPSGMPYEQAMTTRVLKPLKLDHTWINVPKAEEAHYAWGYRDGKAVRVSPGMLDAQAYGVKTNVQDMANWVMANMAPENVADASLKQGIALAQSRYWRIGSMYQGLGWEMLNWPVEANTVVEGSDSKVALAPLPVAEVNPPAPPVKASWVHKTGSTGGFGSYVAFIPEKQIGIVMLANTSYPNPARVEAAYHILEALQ
Experimental: as §1, §2

T1 sequence (P0A3M1 22-286): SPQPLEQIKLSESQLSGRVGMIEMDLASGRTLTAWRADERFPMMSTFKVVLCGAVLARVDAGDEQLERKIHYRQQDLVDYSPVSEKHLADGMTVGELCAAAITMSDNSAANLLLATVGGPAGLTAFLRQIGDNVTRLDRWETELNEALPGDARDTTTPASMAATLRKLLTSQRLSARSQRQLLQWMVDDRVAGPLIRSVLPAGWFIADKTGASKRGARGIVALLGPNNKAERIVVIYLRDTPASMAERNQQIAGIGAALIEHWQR

Row | SMILES | IC50 (SHV-5 β-lactamase) [µM] | IC50 (KPC-2 β-lactamase) [µM] | IC50 [1] [µM] | IC50 (OXA-1 β-lactamase) [µM] | IC50 (p99 AmpC β-lactamase) [µM]
1 | O=C(N[C@H]1Cc2cccc(C(=O)O)c2OB1O)c1csc2c1CCNC2 [Example 4, (R)-2-hydroxy-3-(4,5,6,7-tetrahydrothieno[2,3-c]pyridine-3-carboxamido)-3,4-dihydro-2H-benzo[e][1,2]oxaborinine-8-carboxylic acid] | < 0.1 | < 0.1 | 0.1 to 1 | < 0.1 | < 0.1
2 | NCCNc1ccc(CC(=O)N[C@H]2Cc3cccc(C(=O)O)c3OB2O)cn1 [Example 60, (R)-3-(2-(6-(2-aminoethylamino)pyridin-3-yl)acetamido)-2-hydroxy-3,4-dihydro-2H-benzo[e][1,2]oxaborinine-8-carboxylic acid] | < 0.1 | < 0.1 | 0.1 to 1 | < 0.1 | < 0.1
3 | NCCNc1ccc(CC(=O)N[C@H]2Cc3cccc(C(=O)O)c3OB2O)c[n+]1[O-] [Example 61, (R)-2-(2-aminoethylamino)-5-(2-(8-carboxy-2-hydroxy-3,4-dihydro-2H-benzo[e][1,2]oxaborinin-3-ylamino)-2-oxoethyl)pyridine 1-oxide] | < 0.1 | < 0.1 | 0.1 to 1 | < 0.1 | < 0.1
4 | O=C(N[C@H]1Cc2cccc(C(=O)O)c2OB1O)c1ccc(-c2ccncc2)cc1 [Example 27, (R)-2-hydroxy-3-(4-(pyridin-4-yl)benzamido)-3,4-dihydro-2H-benzo[e][1,2]oxaborinine-8-carboxylic acid] | < 0.1 | < 0.1 | 1 to 10 | < 0.1 | < 0.1
5 | CN1CCc2c(C(=O)N[C@H]3Cc4cccc(C(=O)O)c4OB3O)csc2C1 [Example 6, (R)-2-hydroxy-3-(6-methyl-4,5,6,7-tetrahydrothieno[2,3-c]pyridine-3-carboxamido)-3,4-dihydro-2H-benzo[e][1,2]oxaborinine-8-carboxylic acid] | < 0.1 | < 0.1 | 1 to 10 | < 0.1 | < 0.1
6 | Cc1ccc(C(=O)N[C@H]2Cc3cccc(C(=O)O)c3OB2O)cc1N [Example 23, (R)-3-(3-amino-4-methylbenzamido)-2-hydroxy-3,4-dihydro-2H-benzo[e][1,2]oxaborinine-8-carboxylic acid] | < 0.1 | < 0.1 | 0.1 to 1 | < 0.1 | < 0.1
7 | O=C(O)c1ccccc1C(=O)N[C@H]1Cc2cccc(C(=O)O)c2OB1O [Example 53, (R)-3-(2-carboxybenzamido)-2-hydroxy-3,4-dihydro-2H-benzo[e][1,2]oxaborinine-8-carboxylic acid] | 0.1 to 1 | 0.1 to 1 | 1 to 10 | < 0.1 | < 0.1
8 | Cc1ccc(C(=O)N[C@H]2Cc3cccc(C(=O)O)c3OB2O)cc1NC(=O)[C@@H](N)CN [Example 22, (R)-3-(3-((S)-2,3-diaminopropanamido)-4-methylbenzamido)-2-hydroxy-3,4-dihydro-2H-benzo[e][1,2]oxaborinine-8-carboxylic acid] | 1 to 10 | 0.1 to 1 | 0.1 to 1 | < 0.1 | < 0.1
9 | NCCNc1ccc(CC(=O)N[C@H]2Cc3cccc(C(=O)O)c3OB2O)cc1 [Example 57, (R)-3-(2-(4-(2-aminoethylamino)phenyl)acetamido)-2-hydroxy-3,4-dihydro-2H-benzo[e][1,2]oxaborinine-8-carboxylic acid] | < 0.1 | < 0.1 | 1 to 10 | < 0.1 | < 0.1
10 | O=C(N[C@H]1Cc2cccc(C(=O)O)c2OB1O)c1ccc2c(c1)CN(Cc1cccnc1)C2 [Example 12, (R)-2-hydroxy-3-(2-(pyridin-3-ylmethyl)isoindoline-5-carboxamido)-3,4-dihydro-2H-benzo[e][1,2]oxaborinine-8-carboxylic acid] | < 0.1 | < 0.1 | 0.1 to 1 | < 0.1 | < 0.1
11 | O=C(N[C@H]1Cc2cccc(C(=O)O)c2OB1O)c1ccc2c(c1)CNC2 [Example 9, (R)-2-hydroxy-3-(isoindoline-5-carboxamido)-3,4-dihydro-2H-benzo[e][1,2]oxaborinine-8-carboxylic acid] | < 0.1 | < 0.1 | < 0.1 | < 0.1 | < 0.1
12 | N=C(N)NCc1ccc(C(=O)N[C@H]2Cc3cccc(C(=O)O)c3OB2O)cc1CNC(=N)N [Example 25, (R)-3-(3,4-bis(guanidinomethyl)benzamido)-2-hydroxy-3,4-dihydro-2H-benzo[e][1,2]oxaborinine-8-carboxylic acid] | 0.1 to 1 | < 0.1 | < 0.1 | 0.1 to 1 | < 0.1
13 | CNCc1ccc(C(=O)N[C@H]2Cc3cccc(C(=O)O)c3OB2O)cc1CNC [Example 19, (R)-3-(3,4-bis((methylamino)methyl)benzamido)-2-hydroxy-3,4-dihydro-2H-benzo[e][1,2]oxaborinine-8-carboxylic acid] | < 0.1 | < 0.1 | < 0.1 | < 0.1 | < 0.1
14 | Cn1ccc2ccc(C(=O)N[C@H]3Cc4cccc(C(=O)O)c4OB3O)cc21 [Example 43, (R)-2-Hydroxy-3-[(1-methyl-1H-indole-6-carbonyl)-amino]-3,4-dihydro-2H-benzo[e][1,2]oxaborinine-8-carboxylic acid] | 0.1 to 1 | < 0.1 | 0.1 to 1 | < 0.1 | < 0.1
15 | NCCOc1ccc(C(=O)N[C@H]2Cc3cccc(C(=O)O)c3OB2O)cc1O [Example 40, (R)-3-(4-(2-aminoethoxy)-3-hydroxybenzamido)-2-hydroxy-3,4-dihydro-2H-benzo[e][1,2]oxaborinine-8-carboxylic acid] | 0.1 to 1 | < 0.1 | < 0.1 | < 0.1 | < 0.1
16 | O=C(N[C@H]1Cc2cccc(C(=O)O)c2OB1O)c1ccc(-c2ccccn2)cc1 [Example 24, (R)-2-hydroxy-3-(4-(pyridin-2-yl)benzamido)-3,4-dihydro-2H-benzo[e][1,2]oxaborinine-8-carboxylic acid] | < 0.1 | < 0.1 | 0.1 to 1 | < 0.1 | < 0.1
17 | NC1=Nc2cc(C(=O)N[C@H]3Cc4cccc(C(=O)O)c4OB3O)ccc2CN1 [Example 15, (R)-3-(2-amino-3,4-dihydroquinazoline-7-carboxamido)-2-hydroxy-3,4-dihydro-2H-benzo[e][1,2]oxaborinine-8-carboxylic acid] | < 0.1 | 0.1 to 1 | 1 to 10 | 0.1 to 1 | < 0.1
18 | O=C(Cc1cnc2c(c1)CCCN2)N[C@H]1Cc2cccc(C(=O)O)c2OB1O [Example 13, (R)-2-hydroxy-3-(2-(5,6,7,8-tetrahydro-1,8-naphthyridin-3-yl)acetamido)-3,4-dihydro-2H-benzo[e][1,2]oxaborinine-8-carboxylic acid] | < 0.1 | 0.1 to 1 | 1 to 10 | < 0.1 | < 0.1
